From publication PMC8892231 (EMBO Reports, 2021)

What was measured:
qC10ORF99 promoter = experiment: Luciferase reporter assay, Japanese quail C10ORF99 promoter in HEK293 cells; format: cell-based; conditions: promoter-pGL4.14 (300 ng), sodium propionate or sodium acetate in serum-free medium for 12 h, normalized to β-galactosidase, vs parental PGL4.14 plasmid, n = 3
cGPR15‐A283L = experiment: Intracellular calcium assay, reverse mutant cGPR15‐A283L; format: cell-based, Latimeria chalumnae; conditions: CHO cells, Fluo-4 calcium assay; peptide 10 nM
cGPR15‐P246K = experiment: Intracellular calcium assay, reverse mutant cGPR15‐P246K; format: cell-based, Lepisosteus oculatus/Scleropages formosus; conditions: CHO cells, Fluo-4 calcium assay; peptide 10 nM

Compound | luciferase activity of the promoter construct (qC10ORF99 promoter) | activation of the mutant receptor based on Ca2+ measurements (cGPR15‐A283L) | activation of the mutant receptor based on Ca2+ measurements (cGPR15‐P246K)
CC(=O)O [acetate] | significantly increased |  | 
CCC(=O)O [propionate] | significantly increased |  | 
AAPSPLFVPGPLPQL [qC10ORF99] |  | activated | activated
